Measurements as given in patent US20220152100A1, “METHODS FOR CONTROLLED ACTIVATION OR ELIMINATION OF THERAPEUTIC CELLS” (Bellicum Pharmaceuticals, Inc., priority 2014, published 2022).

How the values were obtained:
differentiated MSCs = assay: CID-induced apoptosis of differentiated MSC progeny (TUNEL, cell density); settings: adipocytic differentiated iCasp9-positive cells, 50 nM, 24 hours; from 584
Jurkat = assay: CID-induced apoptosis (annexin V) in transduced Jurkat cells; format: cell-based, human; settings: iFas-transduced Jurkat, 10 nM, 8 hours
[1] = system: gene-modified allodepleted cells (SFG.iCasp9.2A.CD19); assay: AP20187-induced apoptosis of gene-modified allodepleted T cells (annexin V/7-AAD); format: cell-based, human
Experimental: Suicide gene functionality was assessed by adding a small molecule synthetic homodimerizer, AP20187 (Ariad Pharmaceuticals; Cambridge, Mass.), at 10 nM final concentration the day following CD19 immunomagnetic selection. Cells were stained with annexin V and 7-amino-actinomycin (7-AAD)(BD Pharmingen) at 24 hours and analyzed by flow cytometry. Cells negative for both annexin V and 7-AAD were considered viable, cells that were annexin V positive were apoptotic, and cells that were both annexin V and 7-AAD positive were necrotic. The percentage killing induced by dimerization was corrected for baseline viability as follows: Percentage killing=100%−(% Viability in AP20187-treated cells÷% Viability in non-treated cells).
Cells were maintained in T cell medium containing 50 U/ml IL-2 until 22 days after transduction. A portion of cells was reactivated on 24-well plates coated with […] OKT3 and 1 μg/ml anti-CD28 (Clone CD28.2, BD Pharmingen, San Jose, Calif.) for 48 to 72 hours. CD19 expression and suicide gene function in both reactivated and non-reactivated cells were measured on day 24 or 25 post transduction.
The day following immunomagnetic selection, 10 nM of the chemical inducer of dimerization, AP20187, was added to induce apoptosis, which appeared within 24 hours. […] Killing efficiency after correction for baseline viability was about 92.9%±3.8%. Large-scale CD19 selection produced cells that were killed with similar efficiency as small-scale selection: mean viability with and without AP20187, and percentage killing, in large and small scale were about 3.9%, about 84.0%, about 95.4% (n=3) and about 6.6%, about 79.3%, about 91.4% (n=5) respectively. AP20187 was non-toxic to non-transduced cells: viability with and without AP20187 was about 86%±9% and 87%±8% respectively (n=6).
To assess the stability of transgene expression and function, cells were maintained in T cell culture medium and low dose IL-2 (50 U/ml) until […] after transduction. A portion of cells was then reactivated with OKT3/anti-CD28. CD19 expression was analyzed by flow cytometry 48 to 72 hours later, and suicide gene function was assessed by treatment with 10 nM AP20187. The obtained are for cells from day 5 post transduction (ie, 1 day after CD 19 selection) and day 24 post transduction, with or without 48-72 hours of reactivation (5 experiments). In 2 experiments, CD25 selection was performed after OKT3/aCD28 activation to further enrich activated cells. Error bars represent standard deviation. * indicates p<0.05 when compared to cells from day 5 post transduction. By day 24, surface CD19 expression fell from about 98%±1% to about 88%±4% (p<0.05) with a parallel decrease in mean fluorescence intensity (MFI) from 793±128 to 478±107 (p<0.05) (see FIG. 13B). Similarly, there was a significant reduction in suicide gene function: residual viability was 19.6±5.6% following treatment with AP20187; after correction for baseline viability of 54.8±20.9%, this equated to killing efficiency of only 63.1±6.2%.
To determine whether the decrease in transgene expression with time was due to reduced transcription following T cell quiescence or to elimination of transduced cells, a portion of cells were reactivated on day 22 post transduction with OKT3 and anti-CD28 antibody. […] CD19 expression increased from about 88%±4% to about 93%±4% (p<0.01) and CD19 MFI increased from 478±107 to 643±174 (p<0.01). […] Killing of the CD25 negative fraction was 78.6±9.1%.

MT-2 = assay: CID-induced apoptosis (annexin V) in transduced MT-2 cells; format: cell-based, human; settings: 8 hours
[2] = system: EBV-specific CTL lines (EBV-CTL); assay: CID-induced elimination/apoptosis of transduced EBV-CTLs (GFP, annexin V/7-AAD flow cytometry); format: cell-based, human; settings: for elimination of GFP+ cells: GFPhigh
[3] = 10 nM, 24 hours, day after CD19 selection
[4] = T cells selected for high expression, overnight 10 nM

Question: For `CC[C@H](C(=O)N1CCCC[C@H]1C(=O)O[C@H](CCc1ccc(OC)c(OC)c1)c1cccc(OCC(=O)NCC(CNC(=O)COc2cccc([C@@H](CCc3ccc(OC)c(OC)c3)OC(=O)[C@@H]3CCCCN3C(=O)[C@@H](CC)c3cc(OC)c(OC)c(OC)c3)c2)CN(C)C)c1)c1cc(OC)c(OC)c(OC)c1` [AP20187], which cell density (differentiated MSCs) is on record?
Answer: < 14 cells/mm2

Question: What about the “apoptotic cells (annexin-V)” value (Jurkat) of the same compound?
Answer: 56.4%+/−15.6

Question: And the “killing efficiency after correction for baseline viability” value [1, 3]?
Answer: about 92.9%±3.8

Question: What about the “viable cells (annexin V and 7-AAD negative)” value [1, 3] of the same compound?
Answer: about 5.5%±2.5

Question: And the killing efficiency ([1]; OKT3/aCD28-reactivated cells, day 24 or 25)?
Answer: ~84.6%±8.0

Question: And the mean viability ([1]; small-scale CD19 selection, n=5)?
Answer: about 6.6%

Question: And the “viability of non-transduced cells” value ([1]; with AP20187, n=6)?
Answer: about 86%±9

Question: What about the “apoptotic cells (annexin-V)” value (MT-2; iCasp9M-transduced MT-2, 10 nM) of the same compound?
Answer: 57.9%+/−11.9

Question: And the “apoptotic cells (annexin-V)” value (MT-2; iFas-transduced MT-2, 10 nM)?
Answer: 19.3%+/−8.4

Question: What about the “concentration sufficient to obtain the maximal deletion effect” value ([2]; F-Casp9M.I.GFPhigh, survival of GFP+ cells on day 7) of the same compound?
Answer: 1 nM

Question: What about the “time to apoptotic characteristics (cell shrinkage and fragmentation)” value ([2]; GFPhigh-selected cells, 10 nM) of the same compound?
Answer: ≤ 14 h

Question: What about the “deletion of transduced cells” value ([2]; GFPhigh-selected iCasp9M cells, 10 nM, day 7) of the same compound?
Answer: 99.1%

Question: And the “apoptotic (annexin-V+/7-AAD−) phenotype” value [2, 4]?
Answer: 64%

Question: And the “necrotic (annexinV+/7-AAD+) phenotype” value [2, 4]?
Answer: 30%

Question: And the “reduction in mean fluorescence intensity of GFP in surviving CTLs” value ([2]; iCasp9M-transduced CTLs after CID)?
Answer: 70%

Question: And the “elimination of GFP+ cells” value ([2]; iCasp9M-transduced CTLs, 10 nM, day 7)?
Answer: 99.2%+/−0.14

Question: What about the “elimination of GFP+ cells” value ([2]; iFas-transduced CTLs, 10 nM, day 7) of the same compound?
Answer: 89.3%+/−4.9
